The assay concerns IL-12. Details: species or system mice. The note with it: mouse, in vivo.

As to `CCOCc1nc2c(N)nc3ccccc3c2n1CC(C)(C)O` [R848, Resiquimod], the “peak level of systemic IL-12, free agonist higher than NC-coupled agonist” value is reported as 30 fold.
